Data taken from paper PMC10762035, “Molecular basis of human trace amine-associated receptor 1 activation” (Nature Communications, 2024).
Positions count from the first letter of the chain named. Values joined by “and” are separate entries in the source; they are usually repeats but may differ in a detail not shown here. Equal entries are not always repeated.

Key:
Assay type in all cases: cell-based
[1] = target: T1, hTA1 C178S (Homo sapiens, UniProt Q96RJ0, C178S); assay: GloSensor cAMP accumulation assay, C178S mutant; conditions: for C178S - Normalized Luminescence Counts (N=2): log[Compound], single replicates
T1 construct: expressed in transfected cells; host or cells: HEK293T
T1 sequence (Q96RJ0 1-339 C178S): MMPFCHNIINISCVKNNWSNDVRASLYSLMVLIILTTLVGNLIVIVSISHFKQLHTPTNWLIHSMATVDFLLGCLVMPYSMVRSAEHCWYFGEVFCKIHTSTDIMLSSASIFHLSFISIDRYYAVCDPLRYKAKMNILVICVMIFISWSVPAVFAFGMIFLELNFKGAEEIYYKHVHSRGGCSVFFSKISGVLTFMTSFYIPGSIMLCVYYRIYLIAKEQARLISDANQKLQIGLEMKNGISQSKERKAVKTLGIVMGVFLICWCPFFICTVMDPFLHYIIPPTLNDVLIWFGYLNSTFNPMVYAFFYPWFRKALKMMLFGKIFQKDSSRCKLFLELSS

[2] = target: T2, hTA1 R83H (Homo sapiens, UniProt Q96RJ0, R83H); assay: GloSensor cAMP accumulation assay, R83H mutant;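 note: cells transiently co-expressing hTA1 and a cAMP GloSensor, luminescence read 30 min after agonist addition at room temperature, concentration–response fitted by non-linear regression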
T2 construct: expressed in transfected cells; host or cells: HEK293T
T2 sequence (Q96RJ0 1-339 R83H): T1 sequence (Q96RJ0 1-339 C178S) with R83H, S178C

[3] = target: T3, hTA1 T271N (Homo sapiens, UniProt Q96RJ0, T271N); assay: GloSensor cAMP accumulation assay, T271N mutant; conditions: for Normalized Luminescence Counts for Concentration Response Curves: log[Agonist], single replicates
T3 construct: expressed in transfected cells; host or cells: HEK293T
T3 sequence (Q96RJ0 1-339 T271N): T1 sequence (Q96RJ0 1-339 C178S) with S178C, T271N

[4] = target: T4, hTA1 C88/178S (Homo sapiens, UniProt Q96RJ0, C178S/C88S); assay: GloSensor cAMP accumulation assay, C88S/C178S double mutant; conditions: for Normalized Luminescence Counts (N=2): log[Compound], single replicate values
T4 construct: expressed in transfected cells; host or cells: HEK293T
T4 sequence (Q96RJ0 1-339 C88S/C178S): T1 sequence (Q96RJ0 1-339 C178S) with C88S

[5] = target: T5, hTA1 (Homo sapiens, UniProt Q96RJ0); assay: Screen of 89 aminergic compounds at 10 µM, cAMP accumulation in HEK293T cells; conditions: 10 µM of compound; HEK293T; threshold log2-fold change of 2;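 note: HEK293T cells co-transfected with hTA1 and GloSensor cAMP reporter, cAMP accumulation detected by luminescence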
T5 construct: expressed in transfected cells; host or cells: HEK293T
T5 sequence (Q96RJ0 1-339): T1 sequence (Q96RJ0 1-339 C178S) with S178C

[6] = C178S, each row one experiment (N=2), 3 replicates
[7] = C88S, C178S, each row is one independent experiment, 3 replicates

Compound: NCCc1ccccc1 [β-PEA, β-phenethylamine]
- pEC50 values, Mean [1, 6]: 7.235 and 7.223
- ΔpEC50 values (each mutant value - WT average), Mean [1, 6]: 0.1416 and 0.1292
- Span ± SEM (Emax normalized to β-PEA) ([1]; C178S, n=2): 100 ± 2.97
- pEC50 ± SEM ([1]; C178S, n=2): 7.23 ± 0.07
- EC50 ([1]; C178S, n=2, read-out: EC50): 59 nM
- Emax values, Mean ([1]; C178S, β-PEA = 100, each row one experiment (N=2), 3 replicates): 100
- C178S - Normalized Luminescence Counts (N=2) ([1]; M = -5): 99.3155 and 106.699 and 98.2875 and 86.7589 and 74.9716 and 83.1688
- C178S - Normalized Luminescence Counts (N=2) ([1]; M = -5.522): 92.9136 and 85.3902 and 85.0163 and 113.744 and 82.4209 and 115
- C178S - Normalized Luminescence Counts (N=2) ([1]; M = -6): 105.577 and 101.792 and 96.652 and 125.741 and 90.4686 and 124.155
- C178S - Normalized Luminescence Counts (N=2) ([1]; M = -6.522): 93.1473 and 96.0445 and 75.0162 and 77.2154 and 68.719 and 87.1478
- C178S - Normalized Luminescence Counts (N=2) ([1]; M = -7): 68.3806 and 62.1189 and 51.4645 and 64.3212 and 56.124 and 61.3594
- C178S - Normalized Luminescence Counts (N=2) ([1]; M = -7.522): 36.8382 and 29.782 and 30.7166 and 32.2204 and 27.7927 and 32.0708
- C178S - Normalized Luminescence Counts (N=2) ([1]; M = -8): 16.2772 and 19.3614 and 14.922 and 22.976 and 17.1422 and 19.9245
- C178S - Normalized Luminescence Counts (N=2) ([1]; M = -8.522): 3.333 and 3.193 and 2.959 and 9.783 and 5.445 and 7.24
- C178S - Normalized Luminescence Counts (N=2) ([1]; M = -9): 1.604 and 3.099 and 1.838 and 2.393 and 2.184 and 1.825
- C178S - Normalized Luminescence Counts (N=2) ([1]; M = -9.522): 0.7163 and 0.2957 and -0.07812 and 1.615 and 0.2691 and 1.107
- C178S - Normalized Luminescence Counts (N=2) ([1]; M = -10): 1.791 and 0.9967 and 1.277 and -3.171 and -1.3464 and -0.5985
- C178S - Normalized Luminescence Counts (N=2) ([1]; M = -10.522): -0.5454 and 0.763 and 0.06206 and -2.244 and -1.825 and -1.7054
- C178S - Normalized Luminescence Counts (N=2) ([1]; M = -11): 0.1088 and 0.5294 and -0.07812 and 0.3289 and 0.7777 and -1.376
- C178S - Normalized Luminescence Counts (N=2) ([1]; M = -11.522): 1.37 and -0.1716 and -0.2183 and -0.6583 and -1.287 and 0.3289
- C178S - Normalized Luminescence Counts (N=2) ([1]; M = -12): -0.7791 and 0.2957 and -0.265 and -2.932 and -0.03006 and 1.645
- C178S - Normalized Luminescence Counts (N=2) ([1]; M = -12.522): -0.452 and -1.34 and -0.6856 and -1.915 and -0.9575 and -0.4489
- ΔEmax values (each mutant value - WT average) ([2]; R83H mutant minus WT average): 0
- ΔpEC50 values (each mutant value - WT average) ([2]; R83H mutant minus WT average): -1.391 and -1.424
- pEC50 values, Mean ([2]; R83H mutant, each line an independent experiment, 3 replicates): 5.702 and 5.67
- Emax values, Mean ([2]; R83H mutant, β-PEA = 100, each line an independent experiment, 3 replicates): 100
- Span ± SEM (Emax normalized to β-PEA) ([2]; R83H, n=2): 100 ± 5.46
- pEC50 ± SEM ([2]; R83H, n=2): 5.69 ± 0.07
- EC50 ([2]; R83H, n=2, read-out: EC50): 2060 nM
- pEC50 values, Mean ([3]; T271N mutant, Figure 5B, each row one independent experiment (3 replicates)): 6.643 and 6.211
- Emax values, Mean ([3]; T271N mutant, Figure 5B, β-PEA = 100, each row one independent experiment (3 replicates)): 100
- Normalized Luminescence Counts for Concentration Response Curves ([3]; T271N, M -7): 26.2249 and 22.04 and 25.7454 and 13.723 and 18.7522 and 17.914
- Normalized Luminescence Counts for Concentration Response Curves ([3]; T271N, M -7.522): 13.7138 and 6.913 and 9.921 and 7.175 and 4.66 and 5.236
- Normalized Luminescence Counts for Concentration Response Curves ([3]; T271N, M -8): 4.385 and 5.17 and 5.257 and 2.984 (2×) and 1.569
- Normalized Luminescence Counts for Concentration Response Curves ([3]; T271N, M -8.522): 2.467 and 1.9 and 1.508 and 0.2596 and -0.631 and 0.5215
- Normalized Luminescence Counts for Concentration Response Curves ([3]; T271N, M -9): 0.4181 and 0.5052 and 1.246 and -0.2643
- Span ± SEM (Emax normalized to β-PEA) ([3]; T271N, n=2): 100 ± 3.3
- pEC50 ± SEM ([3]; T271N, n=2): 6.43 ± 0.06
- EC50 ([3]; T271N, n=2, read-out: EC50): 374 nM
- Span ± SEM (Emax normalized to β-PEA) ([4]; C88/178S, n=2): 100 ± 2.48
- pEC50 ± SEM ([4]; C88/178S, n=2): 6.88 ± 0.05
- EC50 ([4]; C88/178S, n=2, read-out: EC50): 131 nM
- pEC50 values, Mean [4, 7]: 6.846 and 6.92
- ΔEmax values (each mutant value - WT average), Mean [4, 7]: 0
- ΔpEC50 values (each mutant value - WT average), Mean [4, 7]: -0.2478 and -0.1738
- Normalized Luminescence Counts (N=2) ([4]; C88S, C178S, M = -5): 101.882 and 95.4366 and 102.899 and 85.0446 and 70.847 and 114.648
- Normalized Luminescence Counts (N=2) ([4]; C88S, C178S, M = -5.522): 95.8888 and 94.7581 and 92.1574 and 110.721 and 84.1384 and 118.726
- Normalized Luminescence Counts (N=2) ([4]; C88S, C178S, M = -6): 93.4012 and 85.4861 and 88.3694 and 88.8206 and 85.1957 and 105.284
- Normalized Luminescence Counts (N=2) ([4]; C88S, C178S, M = -6.522): 70.73 and 60.7795 and 60.3272 and 66.7689 and 68.1283 and 68.2793
- Normalized Luminescence Counts (N=2) ([4]; C88S, C178S, M = -7): 45.3449 and 38.504 and 42.0658 and 45.3213 and 30.2174 and 49.8525
- Normalized Luminescence Counts (N=2) ([4]; C88S, C178S, M = -7.522): 20.2426 and 24.5959 and 17.7549 and 22.8165 and 30.2174 and 24.931
- Normalized Luminescence Counts (N=2) ([4]; C88S, C178S, M = -8): 8.37 and 6.617 and 6.9 and 9.072 and 8.317 and 8.6188
- Normalized Luminescence Counts (N=2) ([4]; C88S, C178S, M = -8.522): 1.02 and 2.433 and 0.1154 and 4.692 and 3.483 and 4.843
- Normalized Luminescence Counts (N=2) ([4]; C88S, C178S, M = -9): 0.5677 and 0.7373 and -0.4499 and -0.2925 (2×) and 1.218
- Normalized Luminescence Counts (N=2) ([4]; C88S, C178S, M = -9.522): 0.002362 and 0.3416 and -0.5065 and -0.8967 and 0.3116 and 0.009559
- Normalized Luminescence Counts (N=2) ([4]; C88S, C178S, M = -10): -0.9588 and 0.002362 and -0.3934 and -1.652 and -0.4436 and -1.199
- Normalized Luminescence Counts (N=2) ([4]; C88S, C178S, M = -10.522): -1.185 and -0.563 and -1.0153 and -1.803 and 0.009559 and -1.35
- Normalized Luminescence Counts (N=2) ([4]; C88S, C178S, M = -11): -0.05417 and -0.2238 and 0.4547 and -0.2925 and -1.652 and -0.7456
- Normalized Luminescence Counts (N=2) ([4]; C88S, C178S, M = -11.522): 0.172 and 0.1154 and 0.7939 and 0.1606 and -1.954 and -0.4436
- Normalized Luminescence Counts (N=2) ([4]; C88S, C178S, M = -12): 0.172 and -0.6195 and -0.5065 and -0.1415 and -1.35 and 0.9158
- Normalized Luminescence Counts (N=2) ([4]; C88S, C178S, M = -12.522): -0.2803 and 0.2285 and 0.002362 and -1.199 and 0.4627 and 0.6137
- Emax values, Mean ([4]; C88S, C178S, normalized (β-PEA = 100), each row is one independent experiment, 3 replicates): 100
- increase of signal over DMSO-treated controls (hTA1 activation) [5]: ≥ 4 fold
